Assay results reported in paper PMC3323469, “Comparative study of ^64Cu/NOTA-[D-Tyr^6,βAla^11,Thi^13,Nle^14]BBN(6-14) monomer and dimers for prostate cancer PET imaging” (EJNMMI Research, 2012).
Numbered stars: 1 amine (or outer) side, 2 acyl side, 3 side chain; on linkers, the order of the positions; unused ones are H or OH. Bridge positions count the residues as written; N and C are the ends. Square brackets hold non-standard residues; d marks the D form. Peptide text beside a SMILES is read from it. I, II: the chains in the order shown. * marks the point of attachment. NOTA = O=C(O)CN1CCN(CC(=O)O)CCN(CC(=O)*)CC1; X1 = O=C(CCC(=O)[*:2])NCCOCCOCC(=O)[*:1]; 2Thi = N[C@@H](Cc1cccs1)C(=O)O; Nle = CCCC[C@H](N)C(=O)O; AEEA = NCCOCCOCC(=O)O; βAla = NCCC(=O)O

Legend:
[1] = type: in vitro ADME; conditions: 24 h
Description: Plasma and in vivo stability studies were realized as previously described by our group. Briefly, after peptide reconstitution, studies were carried out by incubating the tracers in mouse plasma for a period of 24 h and by injecting around 15 to 25 MBq (400 to 650 μCi; 100 μL) of ^64Cu/peptide to female Balb/c mice; 3 mice per peptide. After 24 h, a portion of the incubation mixtures in plasma or blood samples taken from the back paw were quenched with equal amounts of MeCN, chilled (4°C) and centrifuged, and the supernatant was assayed by HPLC. The stability was also determined by radio-TLC directly from plasma and blood samples without further handling; free ^64Cu and purified radiolabeled peptides were used as standards. The radio-TLCs were eluted on C-18-coated plastic sheets with 0.1 M sodium citrate buffer at pH 5.5 using an instant imager system for the radio-detection.

[2] = system: PC3 tumor; experiment: in vivo; set-up: species or system Balb/c nude mice; conditions: mouse
Description: (§1) Tumor-bearing Balb/c nude mice were injected with 370 to 740 kBq (10 to 20 μCi; 100 μL) of ^64Cu/NOTA-monomer and ^64Cu/NOTA-dimer 2 via the caudal vein and sacrificed with CO2 at different periods of time after injection. Organs of interest were then collected and weighed. -Radioactivity was measured in a gamma counter. The blocking experiments were realized by co-injecting 0.1 μmol of non-radiolabeled peptide. The results were expressed as %ID/g with a minimum of 3 mice for each condition.

[3] = in vivo; set-up: species or system Balb/c nude mice; conditions: Balb/c nude, mouse, total radioactivity
Description: as §1

[4] = Solubility in physiological media; type: physicochemical; conditions: 64Cu-labeled peptide; DMF-PBS (10/90 v/v) used to solubilize
Description: Our cyclotron facility provides ^64Cu isotope on a routine basis for research purposes using a target system developed in collaboration with Advanced Cyclotron Systems Inc. (ACSI, Richmond, British Columbia, Canada). ^64Cu was prepared on an EBCO TR-19 cyclotron (EBCO Technologies, Vancouver, Canada) by the ^64Ni(p, n)^64Cu nuclear reaction using an enriched ^64Ni target electroplated on a rhodium disk. [^64Cu]CuCl2 was recovered from the target following the procedure of McCarthy et al. and converted to [^64Cu]copper[II] acetate by dissolving the [^64Cu]CuCl2 in ammonium acetate (0.1 M; pH 5.5). Peptides were labeled with ^64Cu following conditions optimized in our laboratory. Briefly, peptides (5 μg) were dissolved in a 0.1 M ammonium acetate buffer at pH 5.5 with [^64Cu]Cu(OAc)2 (8 to 10 mCi, 296 to 370 MBq) in a total volume of 250 to 300 μL, and then, the resulting solution was incubated at 100°C for 10 min. The labeled product was purified by HPLC using a C-18 column and a radio-detector. The amount of radiolabeled peptide was determined by the peak area of the tracer in the UV-chromatogram compared to the UV peak area of the standard unlabelled peptide (Figure 3). […] The peptide fraction was collected, evaporated and counted in a Capintec radioisotope calibrator (Capintec, Inc., NJ, USA) to calculate the specific activity of the product.

[5] = target: GRPR (Homo sapiens, UniProt P30550); experiment: Competitive binding assay with [125I-Tyr4]bombesin on PC3 cells; set-up: host or cells: PC3 cells (whole, adherent cells in 24-well plates); conditions: read-out: Ki (affinity for GRPR)
Description: Competition assays were performed in 24-well plates using PC3 cells. The cells were cultured until near confluence, and the medium was replaced by 400 μL of reaction medium (RPMI complemented with 2 mg/mL BSA, 4.8 mg/mL HEPES, 1 U/mL penicillin G and 1 μg/mL streptomycin). For the assay, equal volumes of radioactive and non-radioactive ligands were added. […] The plates were incubated for 40 min at 37°C with agitation. After the incubation, the reaction medium was removed, and the cells were washed three times with PBS at room temperature. The cells were harvested and counted in a gamma counter (Cobra II auto-gamma counter, Packard, MN, USA). Experiments were realized three times in triplicate. Data were analyzed with GraphPad Prism 5 Software (GraphPad Software, San Diego, CA, USA) to determine the IC50. Finally, the Ki was determined using Cheng and Pursoff's formula [32].

[6] = target: T1, GRPR (Mus musculus, UniProt P21729); experiment: Biodistribution in Balb/c mice (in vivo GRPR-targeting efficacy); conditions: 64Cu-labeled peptide, female Balb/c mice, 30 min p.i.
T1 construct: using the pancreas, a GRPR-rich tissue, as a target for specific receptor-mediated accumulation; from tissue; host or cells: Female Balb/c mice, in vivo; organs (pancreas and others) collected 30 min p.i
Description: To determine the in vivo GRPR-targeting efficacy of labeled peptides, biodistribution of female Balb/c mice were realized with a minimum of 4 mice for each condition. Briefly, mice were injected with 370 to 740 kBq (10 to 20 μCi; 100 μL) of either ^64Cu/NOTA-monomer, ^64Cu/NOTA-dimer 1 or ^64Cu/NOTA-dimer 2 via the caudal vein. The animals were sacrificed with CO2 at 30 min post-injection [p.i.]. Organs of interest were then collected, weighed and measured in a gamma counter. The results were expressed as percentage of the injected dose per gram of tissue [%ID/g].

T1 sequence (P21729 whole entry): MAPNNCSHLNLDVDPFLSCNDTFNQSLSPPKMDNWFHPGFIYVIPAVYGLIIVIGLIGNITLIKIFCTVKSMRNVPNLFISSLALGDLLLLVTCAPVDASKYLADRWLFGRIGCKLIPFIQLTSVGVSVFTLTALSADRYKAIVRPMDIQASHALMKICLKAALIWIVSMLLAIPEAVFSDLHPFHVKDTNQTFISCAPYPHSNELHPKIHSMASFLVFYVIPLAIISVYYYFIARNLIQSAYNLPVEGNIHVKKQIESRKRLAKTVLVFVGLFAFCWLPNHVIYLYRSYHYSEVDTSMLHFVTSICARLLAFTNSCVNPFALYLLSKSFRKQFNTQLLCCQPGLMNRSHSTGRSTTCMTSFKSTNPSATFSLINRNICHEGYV
Sequence of GRPR (Homo sapiens, UniProt P30550) (P30550 whole entry): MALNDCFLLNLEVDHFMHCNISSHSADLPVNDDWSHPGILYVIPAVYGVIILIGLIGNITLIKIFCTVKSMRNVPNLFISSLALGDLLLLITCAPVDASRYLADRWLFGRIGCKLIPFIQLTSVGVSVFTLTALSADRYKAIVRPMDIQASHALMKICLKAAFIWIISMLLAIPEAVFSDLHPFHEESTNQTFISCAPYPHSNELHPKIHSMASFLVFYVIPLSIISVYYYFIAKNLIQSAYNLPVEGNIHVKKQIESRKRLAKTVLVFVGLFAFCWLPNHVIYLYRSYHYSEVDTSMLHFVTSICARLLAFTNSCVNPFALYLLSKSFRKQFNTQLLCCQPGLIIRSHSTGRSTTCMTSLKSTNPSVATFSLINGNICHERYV

CCCC[C@H](NC(=O)[C@H](Cc1cccs1)NC(=O)[C@H](Cc1c[nH]cn1)NC(=O)CCNC(=O)[C@@H](NC(=O)[C@H](C)NC(=O)[C@H](Cc1c[nH]c2ccccc12)NC(=O)[C@H](CCC(N)=O)NC(=O)[C@@H](Cc1ccc(O)cc1)NC(=O)COCCOCCNC(=O)CN1CCN(CC(=O)O)CCN(CC(=O)O)CC1)C(C)C)C(N)=O [^64Cu/NOTA-monomer, metal not drawn] ({NOTA-AEEA}-[dY]QWAV[βAla]H[2Thi][Nle]-NH2)
Stability in mouse plasma [1]: stable | Biodistribution Adrenal ([2]; Balb/c nude, 0.5 h): 4.29 ± 1.13 %ID/g | Biodistribution Blood ([2]; Balb/c nude, 0.5 h): 1.35 ± 0.47 %ID/g | Biodistribution Bone ([2]; Balb/c nude, 0.5 h): 0.43 ± 0.46 %ID/g | Biodistribution Brain ([2]; Balb/c nude, 0.5 h): 0.08 ± 0.07 %ID/g | Biodistribution Fat ([2]; Balb/c nude, 0.5 h): 0.65 ± 0.54 %ID/g | Biodistribution Heart ([2]; Balb/c nude, 0.5 h): 1.05 ± 0.91 %ID/g | Biodistribution Kidney ([2]; Balb/c nude, 0.5 h): 10.42 ± 1.29 %ID/g | Biodistribution Lungs ([2]; Balb/c nude, 0.5 h): 1.77 ± 1.28 %ID/g | Biodistribution Muscle ([2]; Balb/c nude, 0.5 h): 0.40 ± 0.33 %ID/g | Biodistribution Plasma ([2]; Balb/c nude, 0.5 h): 2.48 ± 0.63 %ID/g | Biodistribution Spleen ([2]; Balb/c nude, 0.5 h): 1.63 ± 1.82 %ID/g | Biodistribution Tumor ([2]; Balb/c nude, 0.5 h): 1.79 ± 0.46 %ID/g | Tumor/kidney ratio ([2]; Balb/c nude, iv, 0.5 h): 0.17 ± 0.04 | Tumor/liver ratio ([2]; Balb/c nude, iv, 0.5 h): 2.07 ± 1.13 | Tumor/muscle ratio ([2]; Balb/c nude, iv, 0.5 h): 7.42 ± 3.17 | Tumor/pancreas ratio ([2]; Balb/c nude, iv, 0.5 h): 0.44 ± 0.17 | Tumor/muscle ratio [2]: 7.42 ± 0.41 | tissue to tissue ratio at 0.5 h ([3]; iv, Tumor/blood ratio): 1.49 ± 0.41 | tissue uptake at 0.5 h ([3]; Biodistribution Liver): 5.38 ± 8.12 %ID/g | tissue uptake at 0.5 h ([3]; Biodistribution Pancreas): 5.1 ± 2.5 %ID/g

CCCC[C@H](NC(=O)[C@H](Cc1cccs1)NC(=O)[C@H](Cc1c[nH]cn1)NC(=O)CCNC(=O)[C@@H](NC(=O)[C@H](C)NC(=O)[C@H](Cc1c[nH]c2ccccc12)NC(=O)[C@H](CCC(N)=O)NC(=O)[C@@H](Cc1ccc(O)cc1)NC(=O)CCC(=O)NCCOCCOCC(=O)N[C@@H](CCCCNC(=O)CN1CCN(CC(=O)O)CCN(CC(=O)O)CC1)C(=O)NCC(=O)N[C@H](Cc1ccc(O)cc1)C(=O)N[C@@H](CCC(N)=O)C(=O)N[C@@H](Cc1c[nH]c2ccccc12)C(=O)N[C@@H](C)C(=O)N[C@H](C(=O)NCCC(=O)N[C@@H](Cc1c[nH]cn1)C(=O)N[C@@H](Cc1cccs1)C(=O)N[C@@H](CCCC)C(N)=O)C(C)C)C(C)C)C(N)=O [NOTA-dimer 1, BBN(6-14)-Suc-PEG-Lys(NOTA)-Gly-BBN(6-14)] (I: K(NOTA)G[dY]QWAV[βAla]H[2Thi][Nle]-NH2 / II: [dY]QWAV[βAla]H[2Thi][Nle]-NH2; linker I:N-II:N via X1)
Solubility in physiological media [4]: poorly soluble | Ki [5]: 2 ± 1.59 nM | Pancreas uptake [6]: 15.6 ± 2.0 %ID/g
